Measurements published in patent publication US11634434B2, “Bifunctional alpha-synuclein binding agents and uses thereof” (University of Saskatchewan, priority 2016, dated 2023).
“And” between values parts separate entries of the source, which are not always exact repeats. Equal entries are not always repeated. Where two headings read alike, the source gives them in different places.

Experiments:
[1] = tested on: yeast strain 2AS (2 copies of AS-GFP gene); type: cell-based
Description: (§1) Third, the drugs were assayed in a yeast model of Parkinson's Disease, which expresses an alpha-synuclein-Green Fluorescent Protein (AS-GFP) construct under the control of a galactose promoter.
Construction of the 1AS and 2AS strains has been described in detail previously.^55 Strains were grown in YPD supplemented with 30 μg/ml of all amino acids. The OD600 was adjusted to 0.05 in drop-out media (no uracil) at 30° C. Drugs were dissolved in methanol at 0.01 micromolar, 0.1 micromolar, 1 micromolar or 10 micromolar followed by addition of 100 micromolar or 5 mM galactose to a final volume of 10 mL.

[2] = tested on: alpha-synuclein-GFP aggregation in yeast strain 2AS; type: cell-based; settings: 1 micromolar compound, 5 mM galactose
Description: as §1
For Analysis of AS-GFP distribution, the 2AS strain was grown overnight in drop-out media. After normalization of culture density, galactose was administered to a final concentration of 5 mM. […] For the yeast recovery assay, yeast cells were obtained after 6 hours induction with 5 mM galactose concentration, washed in galactose free media and the compounds were added to a final concentration of 1 micromolar in a 2 mL reaction mixture. The culture was incubated at 30° C. for 3, 6, and 9 hour intervals. Images were obtained at each interval using an Olympus Infinity (BX51) fluorescence microscope at 100× magnification.

[3] = tested on: male Sprague-Dawley rats with increased alpha-synuclein expression; assay: Forced swim test in ASIA-treated rats; type: in vivo, rat; settings: ASIA + compound 3 mg/kg
Description: male Sprague-Dawley rats are used (200 g-300 g). All animals are handled ethically following approved protocols. For the first round of studies, rats are divided into five treatment groups:
Rats are subjected to 7-day chronic injection of 3 mg/kg of each test compound, and a forced swim test is conducted after the seventh day to measure motor deficits. […] For a second round of studies, rats are divided into four treatment groups, and the same experiments were repeated:
The forced swim test is carried out by immersing the rat in water that is sufficiently deep to force the rat to swim. The forced swim test is scored based on the following criteria:
Vigor and success are measures of motor function. Immobility is thought to be a measure of depression.^59 Based on videos of the forced swim test, the amount of time that each rat was motionless was calculated as a form of scoring depression for each treatment. Statistical analysis was carried out using an ordinary one-way ANOVA and Tukey multiple comparisons test.

[4] = biological target: T1, alpha-synuclein (Homo sapiens, UniProt P37840); assay: Nanopore analysis of alpha-synuclein (blockade current histograms); type: binding; settings: for nanopore profile of additional bifunctional molecules: FIGS. 9A-9D; for binding to alpha-synuclein: method not stated for these compounds; for nanopore profile (bumping peak / binding): 1 micromolar alpha-synuclein, 20 micromolar compound, FIG. 3
Description: The bifunctional molecules were characterized by four different methods. […] If the compound causes a more compact conformation, then the alpha-synuclein can no longer translocate and it simply bumps into the pore giving rise to a very small change in the blockade current.^44-46
(§2) Nanopore analysis and isothermal titration calorimetry were performed as described previously.^21,54

[5] = biological target: T1, alpha-synuclein; assay: Isothermal titration calorimetry (ITC) binding to alpha-synuclein; settings: for # Binding sites: Table 2; for Bind to N and C?: binds to both N and C portions of alpha-synuclein; as to Bind to N and C?: key: Y indicates yes; N indicates no
Description: as §2

[6] = tested on: WT yeast; assay: Yeast growth curves (OD600), toxicity of drugs on WT yeast; type: cell-based; parameters: effect on growth of WT yeast: dose or concentration left out as unconfirmed
[7] = 1 micromolar compound + 100 micromolar galactose
[8] = ITC in 1.0M KCl, bifunctional molecules (or monomers) per alpha-synuclein molecule, best fit
[9] = 1 micromolar compound + 5 mM galactose

| Structure (SMILES) | nanopore profile of additional bifunctional molecules [4] | # Binding sites [5] | Ka ([5]; Table 2, ITC) | Bind to N and C? [5] | further results |
| --- | --- | --- | --- | --- | --- |
| NC1CCc2ccccc21 (racemic) [(R,S)-1-aminoindan, reference compound] | – | – | – | – | growth of 2AS yeast [1, 7]: rate of growth which is similar to that shown by the WT strain; formation of foci delayed until (time after induction) [2]: 9 h; immobility in forced swim test [3]: partially reversed; success in forced swim test ([3]; last three minutes of the test): some improvement; vigor in forced swim test ([3]; last three minutes of the test): some improvement |
| CN1CCC[C@H]1c1cccnc1 (racemic) [(R,S)-nicotine, reference compound] | – | – | – | – | growth of 2AS yeast [1, 7]: rate of growth which is similar to that shown by the WT strain; formation of foci delayed until (time after induction) [2]: 9 h |
| Cn1c(=O)c2c(ncn2CCN2CCCC2c2cccnc2)n(C)c1=O (racemic) [Compound C7-2-N] | bumping peaks, but have a shifted translocation peak visible as well | 1 | 50000 M⁻¹ | Y | – |
| Cn1c(=O)c2c(ncn2CCCCN2CCCC2c2cccnc2)n(C)c1=O (racemic) [Compound C7-4-N] | bumping peaks, but have a shifted translocation peak visible as well | 1 | 3e+06 M⁻¹ | Y | – |
| Cn1c(=O)c2c(ncn2CCCCCCN2CCCC2c2cccnc2)n(C)c1=O (racemic) [Compound C7-6-N] | – | 1 | 5e+06 M⁻¹ | Y | Ka ([5]; ITC in 1.0M KCl): 5.1e+06 M⁻¹; # of Binding sites [5, 8]: 1; lag before growth rescue / reaching the growth plateau [1, 9]: about 6 hours |
| Cn1c(=O)c2c(ncn2CCCCCCCCN2CCCC2c2cccnc2)n(C)c1=O (racemic) [Compound C7-8-N] | bumping peaks, but have a shifted translocation peak visible as well | 1 | 4e+06 M⁻¹ | Y | – |
| Cn1c(=O)c2c(nc(CCCCCCCCNC3CCc4ccccc43)n2C)n(C)c1=O (racemic) [Compound C8-8-I] | – | – | – | – | binding to alpha-synuclein [4]: bind to alpha-synuclein |
| Cn1c(=O)c2c(nc(CCCCCCCCN3CCCC3c3cccnc3)n2C)n(C)c1=O (racemic) [Compound C8-8-N] | – | – | – | – | binding to alpha-synuclein [4]: bind to alpha-synuclein |
| NC1CCc2c(F)cccc21 (stereo not drawn) [4-Fluoro-indan-1-yl-amine, reference compound] | – | 0.5 | – | Y | Kd ([5]; Table 2, ITC, read-out: Ka (converted)): 333 nM |
| Cn1c(=O)c2c(ncn2CCn2cnc3c2c(=O)n(C)c(=O)n3C)n(C)c1=O [Compound C7-2-C7] | significant bumping peaks | 1 | 30000 M⁻¹ | Y | – |
| Cn1c(=O)c2c(ncn2CCNC2CCc3ccccc32)n(C)c1=O (stereo not drawn) [Compound C7-2-I] | significant bumping peaks | 1 | 90000 M⁻¹ | Y | – |
| Cn1c(=O)c2c(ncn2CCCCn2cnc3c2c(=O)n(C)c(=O)n3C)n(C)c1=O [Compound C7-4-C7] | significant bumping peaks | 0.5 | 1e+07 M⁻¹ | Y | – |
| Cn1c(=O)c2c(ncn2CCCCNC2CCc3ccccc32)n(C)c1=O (stereo not drawn) [Compound C7-4-I] | bumping peaks, but have a shifted translocation peak visible as well | 1 | 5e+06 M⁻¹ | Y | – |
| Cn1c(=O)c2c(ncn2CCCCCCn2cnc3c2c(=O)n(C)c(=O)n3C)n(C)c1=O [Compound C7-6-C7] | – | 2 | 700000 M⁻¹ | Y | nanopore profile (bumping peak / binding) [4]: predominantly bumping peaks; Ka ([5]; ITC in 1.0M KCl): 720000 M⁻¹; # of Binding sites [5, 8]: 2; growth of 2AS yeast [1, 9]: marginal growth rescue |
| Cn1c(=O)c2c(ncn2CCCCCCNC2CCc3ccccc32)n(C)c1=O (stereo not drawn) [Compound C7-6-I] | – | 1 | 2e+06 M⁻¹ | Y | Ka ([5]; ITC in 1.0M KCl): 2.6e+06 M⁻¹; # of Binding sites [5, 8]: 1; growth of 2AS yeast [1, 9]: moderate growth; lag before growth rescue / reaching the growth plateau [1, 9]: about 6 hours; AS-GFP foci / fluorescence pattern ([2]; up to 12 hours): more diffuse area of fluorescence |
| Cn1c(=O)c2c(ncn2CCCCCCCCn2cnc3c2c(=O)n(C)c(=O)n3C)n(C)c1=O [Compound C7-8-C7] | significant bumping peaks | 0.5 | 400000 M⁻¹ | Y | – |
| Cn1c(=O)c2c(ncn2CCCCCCCCNC2CCc3ccccc32)n(C)c1=O (stereo not drawn) [Compound C7-8-I] | bumping peaks, but have a shifted translocation peak visible as well | 0.5 | 2e+07 M⁻¹ | Y | – |
| Cn1c(=O)c2c(nc(CCc3nc4c(c(=O)n(C)c(=O)n4C)n3C)n2C)n(C)c1=O [Compound C8-2-C8] | significant bumping peaks | 1 | 900000 M⁻¹ | Y | – |
| Cn1c(=O)c2c(nc(CCCCCCc3nc4c(c(=O)n(C)c(=O)n4C)n3C)n2C)n(C)c1=O [Compound C8-6-C8] | – | 0.25 | 2e+08 M⁻¹ | Y | nanopore profile (bumping peak / binding) [4]: predominantly bumping peaks; increase of Ka for a 10-fold decrease in ionic strength ([5]; 100 mM KCl versus 1.0M KCl): does not increase; # of Binding sites ([5]; ITC in 100 mM KCl): 0.25; Ka ([5]; ITC in 100 mM KCl): 1.8e+08 M⁻¹; Ka ([5]; ITC in 1.0M KCl): 2e+08 M⁻¹ and 280000 M⁻¹; # of Binding sites [5, 8]: 0.25; toxicity on WT yeast ([6]; 100 micromolar compound): toxic; lag before growth rescue / reaching the growth plateau [1, 9]: about 6 hours |
| CN(CCCCCCCc1nc2c(c(=O)n(C)c(=O)n2C)n1C)C(=N)NC(=N)N.Cl [Compound C8-7-M] | significant bumping peaks | 2 | 640000 M⁻¹ | Y | – |
| CN1CCCC1c1cccnc1 (stereo not drawn) [Nicotine, nicotine, reference compound] | – | 1 | – | Y | Kd ([5]; Ka): 1000 nM |
| N[C@@H]1CCc2ccccc21 [R-Aminoindan, reference compound] | – | 1 | 1e+06 M⁻¹ | Y | Ka ([5]; ITC in 1.0M KCl): 1e+06 M⁻¹; # of Binding sites [5, 8]: 1 |
| CN1CCC[C@@H]1c1cccnc1 [R-Nicotine, reference compound] | – | – | – | – | # of Binding sites [5, 8]: 1; Kd ([5]; Ka): 714 nM |
| N[C@H]1CCc2ccccc21 [S-Aminoindan, reference compound] | – | 1 | 3e+06 M⁻¹ | Y | Ka ([5]; ITC in 1.0M KCl): 3.1e+06 M⁻¹; # of Binding sites [5, 8]: 1 |
| CN1CCC[C@H]1c1cccnc1 [S-Nicotine, reference compound] | – | – | – | – | Ka ([5]; ITC in 1.0M KCl): 400000 M⁻¹; # of Binding sites [5, 8]: 1 |
| C[n+]1ccc(-c2cc[n+](C)cc2)cc1 [paraquat, reference compound] | – | – | – | – | effect on growth of WT yeast ([6]; no alpha-synuclein): no evidence of toxicity; growth of 2AS yeast [1, 7]: significant reduction of growth |
| C=C(C)[C@H]1Cc2c(ccc3c2O[C@@H]2COc4cc(OC)c(OC)cc4[C@@H]2C3=O)O1 [rotenone, reference compound] | – | – | – | – | growth of 2AS yeast [1, 7]: significant reduction of growth |
